# Laboratory results from the NIST ThermoML archive (doi:10.1021/acs.jced.5b00545).
# ± gives the expanded uncertainty stated by the source.
# Conditions: Liquid; for mass density / kinematic viscosity: 101.33 kPa; for mass density: Pycnometric method; for kinematic viscosity: Capillary tube (Ostwald / Ubbelohde) method; for vapor or sublimation pressure: Closed cell (Static) method
compound,measurement,setting,value
CCCCCC[C@@H](O)CC=CCCCCCCCC(=O)OC [[R]-methyl 12-hydroxy-9-octadecenoate],mass density,293.16 K,928.5 ± 7 kg/m3
same,kinematic viscosity,298.23 K,2.95e-05 ± 9.6e-07 m2/s
same,kinematic viscosity,303.13 K,2.35e-05 ± 7.6e-07 m2/s
same,mass density,303.17 K,921.2 ± 7 kg/m3
same,kinematic viscosity,308.25 K,1.81e-05 ± 5.9e-07 m2/s
same,kinematic viscosity,313.15 K,1.49e-05 ± 4.8e-07 m2/s
same,mass density,313.33 K,916.7 ± 7 kg/m3
same,kinematic viscosity,318.38 K,1.2e-05 ± 3.9e-07 m2/s
same,mass density,323.05 K,910.3 ± 7 kg/m3
same,kinematic viscosity,323.08 K,1.01e-05 ± 3.3e-07 m2/s
same,kinematic viscosity,328.12 K,8.52e-06 ± 2.8e-07 m2/s
same,kinematic viscosity,333.15 K,7.25e-06 ± 2.4e-07 m2/s
same,mass density,333.25 K,904 ± 7 kg/m3
same,kinematic viscosity,338.05 K,6.26e-06 ± 2e-07 m2/s
same,kinematic viscosity,343.1 K,5.43e-06 ± 1.8e-07 m2/s
same,mass density,343.32 K,895.8 ± 7 kg/m3
same,kinematic viscosity,348.06 K,4.76e-06 ± 1.5e-07 m2/s
same,mass density,353.06 K,883.3 ± 7 kg/m3
same,kinematic viscosity,353.11 K,4.2e-06 ± 1.4e-07 m2/s
same,kinematic viscosity,358.15 K,3.73e-06 ± 1.2e-07 m2/s
same,mass density,363.38 K,875 ± 7 kg/m3
same,mass density,373.26 K,865.8 ± 7 kg/m3
same,mass density,383.23 K,857.5 ± 7 kg/m3
same,vapor or sublimation pressure,451.58 K,0.232 ± 0.054 kPa
same,vapor or sublimation pressure,454.7 K,0.276 ± 0.064 kPa
same,vapor or sublimation pressure,457.23 K,0.319 ± 0.074 kPa
same,vapor or sublimation pressure,459.5 K,0.361 ± 0.084 kPa
same,vapor or sublimation pressure,461.85 K,0.41 ± 0.095 kPa
same,vapor or sublimation pressure,463.55 K,0.449 ± 0.1 kPa
same,vapor or sublimation pressure,465.2 K,0.49 ± 0.11 kPa
same,vapor or sublimation pressure,466.83 K,0.533 ± 0.12 kPa
same,vapor or sublimation pressure,469.55 K,0.61 ± 0.14 kPa
same,vapor or sublimation pressure,470.4 K,0.637 ± 0.15 kPa
same,vapor or sublimation pressure,471.25 K,0.665 ± 0.15 kPa
same,vapor or sublimation pressure,472.3 K,0.7 ± 0.16 kPa
same,vapor or sublimation pressure,473.15 K,0.73 ± 0.17 kPa
same,vapor or sublimation pressure,474.9 K,0.794 ± 0.18 kPa
same,vapor or sublimation pressure,476.8 K,0.868 ± 0.2 kPa
CCCCCCCCCCCCCCCC(=O)OC [methyl hexadecanoate],vapor or sublimation pressure,407.12 K,0.13 ± 0.029 kPa
same,vapor or sublimation pressure,414.26 K,0.21 ± 0.047 kPa
same,vapor or sublimation pressure,418.18 K,0.24 ± 0.054 kPa
same,vapor or sublimation pressure,422.34 K,0.27 ± 0.061 kPa
same,vapor or sublimation pressure,424.68 K,0.305 ± 0.068 kPa
same,vapor or sublimation pressure,427.54 K,0.365 ± 0.082 kPa
same,vapor or sublimation pressure,429.32 K,0.415 ± 0.093 kPa
same,vapor or sublimation pressure,432.32 K,0.42 ± 0.094 kPa
same,vapor or sublimation pressure,434.18 K,0.515 ± 0.12 kPa
same,vapor or sublimation pressure,437.3 K,0.545 ± 0.12 kPa
same,vapor or sublimation pressure,438.44 K,0.56 ± 0.13 kPa
same,vapor or sublimation pressure,439.6 K,0.65 ± 0.15 kPa
same,vapor or sublimation pressure,441 K,0.66 ± 0.15 kPa
same,vapor or sublimation pressure,445.36 K,0.84 ± 0.19 kPa
same,vapor or sublimation pressure,447.06 K,0.85 ± 0.19 kPa
